One series has as its target T1, Factor Xa (Homo sapiens, UniProt P00742).
T1 construct: Factor Xa; 0.2 μM in 50% glycerol (9.2 μg/mL)
The series is described as follows: Dose response assay for protease inhibitors: Factor Xa. In kind it is biochemical. Particulars: ratio versus Factor XIa. Here is the method: (§1) • Assay buffer: 20 mM Hepes, pH 7.4; 150 mM NaCl; 0.02% Tween 20 • Compounds: 10 mM stocks in DMSO • Substrate: 20 mM Glp-Pro-Arg-AMC, 25 mg/2.3 mL H2O (store at +4° C.) [Factor XIa, thrombin, and trypsin] • 20 mM Pro-Phe-Arg-AMC (Bachem I-1295), 25 mg/2.2 mL H2O or Boc-Leu-Gly-Arg-AMC (Bachem I-1105), 25 mg/2.07 mL H2O (store at +4° C.) [Factor Xa] • Enzyme: Factor XIa; 0.25 M in 50% glycerol (20 μg/mL) • Trypsin; 0.2 μM in 50% glycerol (4.8 μg/mL) • Thrombin; 0.2 μM in 50% glycerol (7.34 μg/mL) • Factor Xa; 0.2 μM in 50% glycerol (9.2 μg/mL)
(§2) • 1. Dilute the substrate to 100 μM in assay buffer (30 μL/6 mL). The enzyme is diluted to 0.5 nM just prior to use (12 L/6 mL for Factor XIa; 15 μL/6 mL for all of the rest.) • 2. Pipette 50 μL of substrate into each well of the 96 well (12×8) microtiter plate. (Column 1 is used as the 100% activity control and receives no compound, and Column 12 is the blank and receives no enzyme.) Add an additional 46 μL to column 2. • 3. Pipette 4 μL of each compound into the appropriate well in column 2 of the plate (unknowns assayed in triplicate, standard assayed in duplicate). The final compound concentration will be 1/50th of the stock. • 4. Serially two-fold dilute the compound by mixing the sample in column 2, removing 50 μL to the next well (column 3), mix and remove to column 4, etc. until column 11. After mixing column 11, remove 50 μL and discard. • 5. Pipette 50 μL of buffer into column 12. Initiate the reaction by adding 50 μL of enzyme solution to each well of columns 1-11 as rapidly as possible. • 6. Read the plate in a spectrophotometer (SpectraMax) at 30° C., wherein each well is measured every 60 s for 30 min. For Factor Xa assays, each well is measured every 1 min for a total of 60 min. • 7. For Factor XIa assays, the compounds are assayed, in duplicate, at 3 different starting concentrations, 20, 2, and 0.2 μM; 1:10, 1:100, and 1:1000 dilution of 10 mM stock or at 2, 0.2, and 0.02 μM; 1:100, 1:1000, and 1:10,000 dilution of 10 mM stock. Data for each concentration are combined for graphing and data fitting. • 8. Data can be used both for estimation of IC50 and for estimation of Kon.

Another series addresses T2, Thrombin (Homo sapiens, UniProt P00734).
T2 construct: Thrombin; 0.2 μM in 50% glycerol (7.34 μg/mL)
The series is described as follows: Dose response assay for protease inhibitors: thrombin. The settings on record: ratio versus Factor XIa. In kind it is biochemical. Here is the method:
as §1, §2

For a further series, the target named is T3, Trypsin (Bos taurus, UniProt P00760).
T3 construct: gene PRSS1
T3 sequence (P00760 24-246): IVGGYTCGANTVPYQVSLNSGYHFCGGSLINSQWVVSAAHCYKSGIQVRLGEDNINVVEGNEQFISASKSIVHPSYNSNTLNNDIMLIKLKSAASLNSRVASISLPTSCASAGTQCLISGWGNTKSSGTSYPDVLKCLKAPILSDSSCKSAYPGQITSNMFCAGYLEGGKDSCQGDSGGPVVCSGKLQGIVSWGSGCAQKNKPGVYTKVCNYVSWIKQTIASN
The series is described as follows: Dose response assay for protease inhibitors: trypsin. In kind it is biochemical. Particulars: ratio versus Factor XIa. Here is the method: as §1, §2

Series [1] in a line: Caco-2 cell permeability assay (A-B and B-A). The settings on record: human; for Papp A→B at 60 min, 10 μM: A-B direction; for Papp B→A at 40 min, 10 μM: B-A direction. In kind it is in vitro ADME. Here is the method: The following procedure was used to determine the ability of a test compound to cross Caco-2 cells (human intestinal epithelial cells derived from a colorectal adenocarcinoma). The cells were seeded at 1×10^5 cells/cm^2 in 96-well Multiscreen™ plates (Millipore). Permeability assays were performed with the cells at days 21-25 post-seeding. Cells are typically used for 15 consecutive passages in culture.
This assay can be performed in either the apical to basolateral (A−B) or basolateral to apical (B−A) direction. The test compound was prepared at 10 μM in HBSS-MES (pH 6.5) or HBSS-HEPES (pH 7.4) with a final DMSO concentration of 1%. The working solution was then centrifuged and the supernatant added to the donor side. The assay plate was incubated at 37° C. with gentle shaking for 60 min or 40 min for the A−B or B−A assay, respectively. Samples were aliquoted from the donor side at time zero and the end point, and from the receiver side at the end point.
Reference compounds, propranolol (highly permeable), labetalol (moderately permeable), ranitidine (poorly permeable), and colchicine (P-glycoprotein substrate) were included in each assay.
Samples are analyzed by HPLC-MS/MS using selected reaction monitoring. The HPLC system consists of a binary LC pump with autosampler, a C-18 column, and a gradient.
The apparent permeability coefficient (Papp) of the test compound (Equation 2) and its recovery (Equation 3) are calculated as follows: […]
wherein A is the surface area of the cell monolayer (0.11 cm^2), C is concentration of the test compound expressed as peak area, D denotes donor, and R is receiver. “0”, “mid,” and “end” denote time at zero, mid-point, and end of the incubation, respectively. At is the incubation time. V is the volume of the donor or receiver.
This is most likely due to non-specific binding or degradation.
(In general: Caco-2 monolayers are a common model of the intestinal barrier.)

In another series the target is human Factor XIa (Homo sapiens, UniProt P03951). Nature of the series: Factor XIa enzyme inhibition assay (dose response, fluorogenic AMC substrate). Particulars: purified enzyme; substrate 50 μM, enzyme 0.25 nM; read-out: hFXIa IC50. Set-up: Enzyme: Factor XIa. In kind it is biochemical. In short, it runs like this:
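Fluorogenic assay in 20 mM Hepes pH 7.4, 150 mM NaCl, 0.02% Tween 20 with 0.25 nM enzyme and 50 μM Glp-Pro-Arg-AMC (final). Fluorescence read every minute for 30 min at 30 °C after serial two-fold compound dilution; IC50 from four-parameter Hill fit of dose-response curves.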

The nature of series [2]: Aqueous solubility in PBS pH 7.4. Particulars: phosphate buffered saline, aqueous buffer, kinetic from dmso stock, PBS pH 7.4, room temperature. In kind it is physicochemical. Here is the method: The following procedure was used to determine the aqueous solubility of a test compound in phosphate buffered saline (PBS—NaCl 137 mM, KCl 2.7 mM, Na2HPO4 8.1 mM, KH2PO4 1.5 mM, pH 7.4) in 96-well plate format by HPLC-UV/VIS analysis. The test compound was prepared at 200 μM in PBS from a 10 mM DMSO stock solution. The final DMSO concentration was 2%. The PBS buffer samples were mixed thoroughly followed by incubation at room temperature for 24 h. At the end of the incubation, the PBS buffer samples were centrifuged and supernatants analyzed by HPLC. The aqueous solubility (μM) of the test compound in PBS was determined by comparing the peak area of the principal peak in the calibration standard (200 μM) with the peak area of the corresponding peak in each of the PBS samples. The range of the assay was approximately 0.5 μM to 200 μM. The reference compounds used in each assay were metoprolol, rifampicin, ketoconazole, phenytoin, haloperidol, simvastatin, diethylstilbestrol, and tamoxifen ranking from fully soluble (200 μM) to poorly soluble (<1 μM).

The nature of series [3]: Plasma protein binding by equilibrium dialysis. The class given is in vitro ADME. The settings on record: both sexes, pooled plasma, pH 7.4, human plasma protein binding, read-out: PPB. Here is the method: The following procedure was used to determine the plasma protein binding of a test compound in pooled plasma from human (mixed gender) via equilibrium dialysis in a 96-well plate format. The dialysate compartment was loaded with phosphate-buffered saline (pH 7.4) and the sample side was loaded with plasma spiked with the test compound at a concentration of 10 μM. After loading, samples were covered and incubated for 4 hours at 37° C. After incubation, each compartment was sampled, diluted with acetonitrile/buffer and centrifuged. The supernatants were analyzed by HPLC-MS/MS. The analyte peak areas obtained from HPLC-MS/MS analysis of each sample were used to calculate protein binding according to the following equation (Equation 4):
where: AREAp=Peak area of analyte in protein matrix; AREAb=Peak area of analyte in buffer. The amount measured in the plasma compartment included both free and bound drug, while that on the buffer side represented free drug only; the differences were used to calculate the percentage plasma protein bound. Three reference compounds were tested in each assay: acebutolol, quinidine and warfarin.
A general note: In equilibrium dialysis free small molecules cross a membrane that holds back macromolecules.

Values after ≈ are worked out from the molar mass of the structure shown. Some results are limits rather than exact numbers.

T1 sequence (P00742 235-488 limits assumed): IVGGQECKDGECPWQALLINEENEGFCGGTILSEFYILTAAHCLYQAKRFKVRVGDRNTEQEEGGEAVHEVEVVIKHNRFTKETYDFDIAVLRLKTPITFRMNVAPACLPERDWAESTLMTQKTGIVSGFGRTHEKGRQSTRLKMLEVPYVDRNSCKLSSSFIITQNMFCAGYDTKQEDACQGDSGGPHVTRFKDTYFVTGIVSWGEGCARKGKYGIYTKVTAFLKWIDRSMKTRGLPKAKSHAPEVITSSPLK
T1 sequence (P00742 41-179 partner limits assumed): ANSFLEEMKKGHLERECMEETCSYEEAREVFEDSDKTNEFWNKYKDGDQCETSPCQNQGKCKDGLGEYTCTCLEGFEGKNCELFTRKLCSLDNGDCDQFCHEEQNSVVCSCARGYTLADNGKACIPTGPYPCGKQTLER
human Factor XIa, sequence (P03951 388-625 limits assumed): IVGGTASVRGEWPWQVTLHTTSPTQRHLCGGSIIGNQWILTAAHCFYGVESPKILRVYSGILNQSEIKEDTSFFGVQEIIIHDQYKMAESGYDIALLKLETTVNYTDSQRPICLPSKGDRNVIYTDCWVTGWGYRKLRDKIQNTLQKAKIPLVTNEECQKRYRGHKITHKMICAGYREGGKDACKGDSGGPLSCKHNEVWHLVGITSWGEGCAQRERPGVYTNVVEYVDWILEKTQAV
human Factor XIa, sequence (P03951 19-387 partner limits assumed): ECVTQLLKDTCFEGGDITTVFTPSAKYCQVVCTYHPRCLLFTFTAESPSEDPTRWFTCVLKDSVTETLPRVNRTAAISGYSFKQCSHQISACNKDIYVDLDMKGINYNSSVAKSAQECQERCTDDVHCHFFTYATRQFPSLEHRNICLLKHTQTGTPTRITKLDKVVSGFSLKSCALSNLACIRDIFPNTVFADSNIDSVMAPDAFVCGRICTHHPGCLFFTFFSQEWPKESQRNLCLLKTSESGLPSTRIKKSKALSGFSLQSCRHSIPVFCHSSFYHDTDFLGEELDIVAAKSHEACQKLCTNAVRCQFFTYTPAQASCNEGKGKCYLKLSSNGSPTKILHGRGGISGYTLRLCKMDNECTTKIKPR

Regarding `CC[C@@H](NC(=O)N1C(=O)[C@H](Cc2ccnc(N)c2)[C@H]1C(=O)N(C)c1ncccn1)C1CCCCC1` [Compound 37], the “FXa/FXIa (selectivity ratio)” value on Factor Xa is recorded as “I (“I” indicates >500)”. On Thrombin, the “Ratio: Thrombin/FXIa” value is given as “I (“I” indicates >500)”. The “Ratio: Trypsin/FXIa” value at Trypsin is reported as “G (“G” indicates 1-100)”. Besides, in series [1], the Papp A→B (usually how fast a substance crosses the layer from the apical side) at 60 min, 10 μM was in the range of 11 to 30 ×10⁻⁶ cm/s and the basolateral-to-apical permeability (Papp B→A) (usually the apparent permeability from the basolateral to the apical side of a cell layer) at 40 min, 10 μM was 11 to 30 ×10⁻⁶ cm/s. Also, the IC50 (commonly the point on the concentration scale where inhibition reaches its midpoint) on human Factor XIa is below 10 nM.
On to `CC[C@@H](NC(=O)N1C(=O)[C@H](Cc2ccnc(N)c2)[C@H]1C(=O)N(CC)c1cccc(Cl)c1)C1CCCCC1` [Compound 32], for which the “FXa/FXIa (selectivity ratio)” value on Factor Xa is listed as “H (“H” indicates 101-1000)”. For the same compound, the “Ratio: Thrombin/FXIa” value on Thrombin was “G (“G” indicates 1-100)”. The “Ratio: Trypsin/FXIa” value at Trypsin is “G (“G” indicates 1-100)”. In addition, in series [1], the Papp A→B at 60 min, 10 μM was at most 10 ×10⁻⁶ cm/s and the Papp B→A at 40 min, 10 μM is at most 10 ×10⁻⁶ cm/s. The IC50 at human Factor XIa is below 10 nM.
With `CC[C@@H](NC(=O)N1C(=O)[C@H](Cc2ccnc(N)c2)[C@H]1C(=O)N(C)c1ccccc1)c1cccc(Cl)c1` [Compound 115], at Factor Xa, the “FXa/FXIa (selectivity ratio)” value is “H (“H” indicates 101-1000)”. Besides, the “Ratio: Thrombin/FXIa” value at Thrombin is recorded as “H (“H” indicates 101-1000)”. Besides, the “Ratio: Trypsin/FXIa” value at Trypsin is “G (“G” indicates 1-100)”. In series [1], the Papp A→B at 60 min, 10 μM lay in the range of 11 to 30 ×10⁻⁶ cm/s and the basolateral-to-apical permeability (Papp B→A) at 40 min, 10 μM is at most 10 ×10⁻⁶ cm/s. Besides, the IC50 at human Factor XIa is below 10 nM.
Turning to `CC[C@H](c1cccc(Cl)c1)N(C)C(=O)N1C(=O)[C@H](Cc2ccnc(N)c2)[C@H]1C(=O)N(C)c1ccncc1` [Compound 113], the “FXa/FXIa (selectivity ratio)” value at Factor Xa was “I (“I” indicates >500)”. Further, on Thrombin, the “Ratio: Thrombin/FXIa” value is given as “H (“H” indicates 101-1000)”. Besides, on Trypsin, the “Ratio: Trypsin/FXIa” value was “G (“G” indicates 1-100)”. In series [1], this compound came in with a Papp A→B at 60 min, 10 μM of at most 10 ×10⁻⁶ cm/s and a Papp B→A at 40 min, 10 μM of 11 to 30 ×10⁻⁶ cm/s. Further, the IC50 on human Factor XIa is below 10 nM.
Take `CC[C@@H](NC(=O)N1C(=O)[C@H](Cc2ccnc(N)c2)[C@H]1C(=O)N(C)c1cccc(OC)c1)C1CCCCC1` [Compound 28]: the “FXa/FXIa (selectivity ratio)” value on Factor Xa is recorded as “H (“H” indicates 101-1000)”. Besides, the “Ratio: Thrombin/FXIa” value at Thrombin is listed as “G (“G” indicates 1-100)”. Besides, the “Ratio: Trypsin/FXIa” value on Trypsin was “G (“G” indicates 1-100)”. Besides, in series [1], the Papp A→B at 60 min, 10 μM is 11 to 30 ×10⁻⁶ cm/s and the Papp B→A at 40 min, 10 μM is at most 10 ×10⁻⁶ cm/s. The concentration for half-maximal inhibition (IC50) on human Factor XIa is below 10 nM.
Take `CN(C(=O)[C@@H]1[C@@H](Cc2ccnc(N)c2)C(=O)N1C(=O)N[C@@H](C1CCCCC1)C(F)(F)F)c1cc(Cl)cc(Cl)c1` [Compound 23]: in series [1], the apparent permeability from apical to basolateral (Papp A→B) at 60 min, 10 μM is at most 10 ×10⁻⁶ cm/s and the Papp B→A at 40 min, 10 μM is at most 10 ×10⁻⁶ cm/s. Further, the solubility (as a rule, the dissolved amount per volume that the medium holds) at 24 h in series [2] was at most 10 µM. Moreover, the fraction unbound at 4 h, 10 μM in series [3] was below 0.05. The IC50 at human Factor XIa fell in the range of 10 to 100 nM.
In series [1], `CN(C(=O)[C@@H]1[C@@H](Cc2ccnc(N)c2)C(=O)N1C(=O)N[C@@H](C1CCCCC1)C(F)(F)F)c1cccc(Cl)c1` [Example 11] gave a Papp A→B at 60 min, 10 μM of at most 10 ×10⁻⁶ cm/s and a Papp B→A at 40 min, 10 μM of at most 10 ×10⁻⁶ cm/s. Further, the solubility at 24 h in series [2] was 10 to 100 µM (≈ 5.52 to 55.2 µg/mL). Also, in series [3], the fraction unbound at 4 h, 10 μM was below 0.05.

These data come from patent publication US20190315711A1 (eXIthera Pharmaceuticals, Inc., priority 2016, published 2019).
